From ChEMBL document CHEMBL5226288, “A perspective on medicinal chemistry approaches towards adenomatous polyposis coli and Wnt signal based colorectal cancer inhibitors” (Eur J Med Chem, 2021) come the findings set out here.

In assay [1] the test system is DLD-1. Briefly: Anticancer activity against human DLD-1 cells assessed as reduction in cell viability incubated for 48 hrs by MTT assay. The class given is functional, cell-based. To be noted: DLD-1, 48 h. In general terms: Formazan colour is commonly taken as a measure of viable cells.
For assay [2], the system named is HCT-116. Briefly: Anticancer activity against human HCT-116 cells assessed as reduction in cell viability incubated for 48 hrs by MTT assay. To be noted: HCT-116, 48 h. The class given is functional, cell-based.
A short description of assay [3]: Inhibition of Wnt signalling in human HEK293T cells expressing Topflash and renilla luciferase reporter gene incubated for 24 hrs by Dual-luciferase assay. The class given is cell-based. To be noted: HEK-293T. A general note: Reporter assays use an easily measured gene product as a stand-in for the process of interest.
In assay [4] the test system is SW480. Description: Antiproliferative activity against human SW480 cells expressing firefly and renilla luciferase assessed as reduction in cell growth incubated for 3 hrs by TOPFlash luciferase assay. The format is functional, cell-based. Conditions: SW480, 3 h.
Assay [5] deals with SW480. Briefly: Antiproliferative activity against human SW480 cells assessed as reduction in cell proliferation incubated for 12 to 24 hrs by CCK-8 assay. The class given is functional, cell-based.
Assay [6] relates to HCT-116. Description: Antiproliferative activity against human HCT-116 cells assessed as reduction in cell proliferation incubated for 12 to 24 hrs by CCK-8 assay. The class given is functional, cell-based.
Assay [7] has as its system SW-620. Briefly: Anticancer activity against human SW-620 cells assessed as reduction in cell viability incubated for 24 hrs by CCK-8 assay. The format is functional, cell-based. To be noted: SW-620, 24 h.
Assay [8] concerns KM12. Description: Anticancer activity against human KM12 cells assessed as reduction in cell viability incubated for 24 hrs by CCK-8 assay. The class given is functional, cell-based. To be noted: KM12, 24 h.
Assay [9] has as its system HT-29. Description: Antiproliferative activity against human HT-29 cells assessed as reduction in cell viability. The class given is functional, cell-based.
In assay [10] the target is Ubiquitin carboxyl-terminal hydrolase 7 (Homo sapiens, UniProt Q93009). Description: Inhibition of recombinant full length wild type human Flag-tagged USP7 expressed in human HEK293 cells using Ub-AMC as substrate by fluorometric assay.
Sequence of Ubiquitin carboxyl-terminal hydrolase 7 (Q93009 whole entry): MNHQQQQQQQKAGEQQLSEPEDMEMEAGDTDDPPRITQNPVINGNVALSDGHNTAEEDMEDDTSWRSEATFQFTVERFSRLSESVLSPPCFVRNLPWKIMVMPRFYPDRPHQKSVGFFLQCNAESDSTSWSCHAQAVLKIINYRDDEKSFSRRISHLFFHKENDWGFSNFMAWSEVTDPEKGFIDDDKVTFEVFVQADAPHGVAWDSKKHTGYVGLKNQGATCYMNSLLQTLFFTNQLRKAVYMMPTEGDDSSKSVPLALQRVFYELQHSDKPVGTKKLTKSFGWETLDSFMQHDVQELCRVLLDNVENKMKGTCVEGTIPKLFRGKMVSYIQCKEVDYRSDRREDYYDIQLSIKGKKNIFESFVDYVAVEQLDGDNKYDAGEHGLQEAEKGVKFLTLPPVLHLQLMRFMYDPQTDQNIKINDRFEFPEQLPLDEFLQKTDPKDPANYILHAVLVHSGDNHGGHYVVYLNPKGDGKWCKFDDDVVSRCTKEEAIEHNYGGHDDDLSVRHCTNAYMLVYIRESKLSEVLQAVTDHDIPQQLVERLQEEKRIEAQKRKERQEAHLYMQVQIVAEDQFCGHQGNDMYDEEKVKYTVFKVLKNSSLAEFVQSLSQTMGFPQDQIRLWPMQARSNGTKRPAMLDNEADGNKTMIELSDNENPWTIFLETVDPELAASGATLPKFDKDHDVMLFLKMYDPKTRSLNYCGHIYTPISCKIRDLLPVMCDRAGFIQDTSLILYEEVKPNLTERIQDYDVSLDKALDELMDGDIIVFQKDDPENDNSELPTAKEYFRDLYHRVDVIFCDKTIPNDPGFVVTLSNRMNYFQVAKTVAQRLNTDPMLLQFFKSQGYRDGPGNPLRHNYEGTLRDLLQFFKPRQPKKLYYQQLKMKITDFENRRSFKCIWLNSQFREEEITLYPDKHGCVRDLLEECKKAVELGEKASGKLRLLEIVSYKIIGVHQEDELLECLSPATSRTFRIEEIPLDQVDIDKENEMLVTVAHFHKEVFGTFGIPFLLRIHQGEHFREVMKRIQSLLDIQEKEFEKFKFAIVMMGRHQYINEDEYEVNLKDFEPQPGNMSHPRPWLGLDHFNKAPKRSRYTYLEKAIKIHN
For assay [11], the target named is CBP/beta catenin (Homo sapiens, UniProt P35222+Q92793). Description: Antagonist activity at CBP/beta-catenin (unknown origin) protein-protein interaction. The class given is protein assay.
Sequence of CBP/beta catenin (Q92793 whole entry): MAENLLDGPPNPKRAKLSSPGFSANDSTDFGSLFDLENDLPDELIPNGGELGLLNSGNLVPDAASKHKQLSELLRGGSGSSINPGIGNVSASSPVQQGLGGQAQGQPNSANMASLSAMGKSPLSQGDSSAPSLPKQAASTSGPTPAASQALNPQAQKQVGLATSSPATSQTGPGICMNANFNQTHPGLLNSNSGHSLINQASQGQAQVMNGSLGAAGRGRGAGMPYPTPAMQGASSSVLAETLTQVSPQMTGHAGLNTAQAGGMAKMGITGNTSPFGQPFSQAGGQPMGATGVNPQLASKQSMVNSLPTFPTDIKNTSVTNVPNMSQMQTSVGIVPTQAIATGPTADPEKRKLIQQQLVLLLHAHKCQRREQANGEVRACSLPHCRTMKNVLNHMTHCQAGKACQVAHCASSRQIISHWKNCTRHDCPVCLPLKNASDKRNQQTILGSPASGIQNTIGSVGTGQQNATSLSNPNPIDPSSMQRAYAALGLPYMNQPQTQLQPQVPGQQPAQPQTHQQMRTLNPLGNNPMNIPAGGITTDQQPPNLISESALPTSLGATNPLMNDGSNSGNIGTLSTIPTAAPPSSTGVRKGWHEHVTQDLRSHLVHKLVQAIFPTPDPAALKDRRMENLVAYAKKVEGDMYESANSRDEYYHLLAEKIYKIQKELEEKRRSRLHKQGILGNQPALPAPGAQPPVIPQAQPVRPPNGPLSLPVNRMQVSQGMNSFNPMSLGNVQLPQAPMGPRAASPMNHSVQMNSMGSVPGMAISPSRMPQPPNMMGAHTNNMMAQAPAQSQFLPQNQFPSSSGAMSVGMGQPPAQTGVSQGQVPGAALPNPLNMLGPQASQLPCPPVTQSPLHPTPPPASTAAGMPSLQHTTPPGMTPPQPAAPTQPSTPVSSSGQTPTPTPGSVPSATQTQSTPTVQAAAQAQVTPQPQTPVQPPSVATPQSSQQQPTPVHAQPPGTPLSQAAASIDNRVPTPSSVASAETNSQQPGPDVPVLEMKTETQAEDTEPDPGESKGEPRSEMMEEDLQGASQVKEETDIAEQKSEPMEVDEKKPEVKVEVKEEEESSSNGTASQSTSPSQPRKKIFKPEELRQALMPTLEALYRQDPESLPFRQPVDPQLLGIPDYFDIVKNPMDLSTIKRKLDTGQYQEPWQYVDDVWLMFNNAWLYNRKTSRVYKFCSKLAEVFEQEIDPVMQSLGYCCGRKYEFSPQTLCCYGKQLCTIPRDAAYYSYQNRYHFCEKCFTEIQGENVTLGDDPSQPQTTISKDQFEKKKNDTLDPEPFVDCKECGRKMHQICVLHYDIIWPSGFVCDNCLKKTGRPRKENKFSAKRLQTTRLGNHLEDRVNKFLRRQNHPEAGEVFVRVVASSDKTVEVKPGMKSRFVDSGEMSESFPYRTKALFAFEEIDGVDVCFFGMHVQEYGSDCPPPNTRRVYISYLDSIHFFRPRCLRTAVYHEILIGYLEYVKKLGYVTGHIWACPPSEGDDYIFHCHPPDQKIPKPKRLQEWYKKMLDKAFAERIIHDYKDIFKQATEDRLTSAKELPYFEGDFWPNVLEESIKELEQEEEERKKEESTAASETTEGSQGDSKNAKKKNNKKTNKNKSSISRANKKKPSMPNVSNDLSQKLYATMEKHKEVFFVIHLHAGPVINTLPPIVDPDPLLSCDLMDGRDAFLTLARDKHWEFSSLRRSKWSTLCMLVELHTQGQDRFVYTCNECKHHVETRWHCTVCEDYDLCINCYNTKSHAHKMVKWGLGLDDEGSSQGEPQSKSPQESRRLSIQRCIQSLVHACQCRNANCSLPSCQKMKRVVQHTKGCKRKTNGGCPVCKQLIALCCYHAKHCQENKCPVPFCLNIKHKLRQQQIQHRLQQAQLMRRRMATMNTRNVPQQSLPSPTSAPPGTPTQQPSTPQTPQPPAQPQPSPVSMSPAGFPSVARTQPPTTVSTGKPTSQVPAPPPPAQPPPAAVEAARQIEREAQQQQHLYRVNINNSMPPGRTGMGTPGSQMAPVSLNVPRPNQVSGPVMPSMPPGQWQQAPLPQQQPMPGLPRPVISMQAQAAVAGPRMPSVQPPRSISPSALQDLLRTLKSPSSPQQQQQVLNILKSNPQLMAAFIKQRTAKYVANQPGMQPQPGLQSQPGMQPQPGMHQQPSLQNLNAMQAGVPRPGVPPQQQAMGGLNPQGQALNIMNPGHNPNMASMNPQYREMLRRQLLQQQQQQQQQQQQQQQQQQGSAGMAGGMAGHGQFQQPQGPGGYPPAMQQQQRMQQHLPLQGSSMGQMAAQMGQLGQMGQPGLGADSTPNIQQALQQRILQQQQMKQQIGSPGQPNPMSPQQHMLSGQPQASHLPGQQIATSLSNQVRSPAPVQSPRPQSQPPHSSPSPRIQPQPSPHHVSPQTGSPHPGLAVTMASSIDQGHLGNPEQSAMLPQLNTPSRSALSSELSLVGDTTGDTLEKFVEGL
Sequence of CBP/beta catenin (P35222 whole entry): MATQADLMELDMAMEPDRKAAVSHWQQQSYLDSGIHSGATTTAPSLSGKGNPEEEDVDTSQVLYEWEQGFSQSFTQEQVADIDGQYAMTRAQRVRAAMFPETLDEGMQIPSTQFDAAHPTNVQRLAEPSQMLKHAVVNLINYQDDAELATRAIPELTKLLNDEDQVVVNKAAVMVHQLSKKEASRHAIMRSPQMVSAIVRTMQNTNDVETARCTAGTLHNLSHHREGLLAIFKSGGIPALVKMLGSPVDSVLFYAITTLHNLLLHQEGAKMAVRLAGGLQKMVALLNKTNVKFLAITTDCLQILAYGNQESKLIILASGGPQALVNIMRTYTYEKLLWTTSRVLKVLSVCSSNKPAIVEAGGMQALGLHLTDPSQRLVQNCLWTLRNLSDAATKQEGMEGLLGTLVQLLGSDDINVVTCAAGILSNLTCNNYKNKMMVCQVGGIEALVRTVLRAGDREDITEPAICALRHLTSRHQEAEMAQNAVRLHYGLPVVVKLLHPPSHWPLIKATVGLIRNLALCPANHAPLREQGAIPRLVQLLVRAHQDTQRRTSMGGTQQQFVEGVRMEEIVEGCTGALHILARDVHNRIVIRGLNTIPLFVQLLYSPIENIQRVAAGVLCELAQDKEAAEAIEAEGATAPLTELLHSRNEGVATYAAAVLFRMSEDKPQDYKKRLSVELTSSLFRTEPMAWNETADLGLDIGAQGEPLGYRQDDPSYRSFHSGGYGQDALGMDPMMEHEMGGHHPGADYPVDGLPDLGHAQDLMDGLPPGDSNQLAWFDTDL
Assay [12] has as its system SW480. Briefly: Antiproliferative activity against human SW480 cells assessed as reduction in cell viability incubated for 24 hrs by CCK-8 assay. The class given is functional, cell-based. Conditions: SW480, 24 h.
In assay [13] the test system is LoVo. Briefly: Anticancer activity against human LoVo cells assessed as reduction in cell viability incubated for 24 hrs by MTT assay. The format is functional, cell-based.
Assay [14] deals with SW480. Description: Anticancer activity against human SW480 cells assessed as reduction in cell viability incubated for 24 hrs by MTT assay. The format is functional, cell-based. To be noted: SW480, 24 h.
The test system of assay [15] is SW48. Briefly: Anticancer activity against human SW48 cells assessed as cell growth inhibition. The format is functional, cell-based.
In assay [16] the target is Catenin beta-1/Transcription factor 7 (Homo sapiens, UniProt P35222+P36402). Description: Inhibition of human beta-catenin (142 to 686 residues)/human TCF (7 to 51 residues) protein-protein interaction incubated for 3 hrs by fluorescence polarization assay. In general terms: In fluorescence polarisation assays a small probe gives low polarisation when free and higher when bound to something large.
Sequence of Catenin beta-1/Transcription factor 7 (P36402 whole entry, the tested form may be a part): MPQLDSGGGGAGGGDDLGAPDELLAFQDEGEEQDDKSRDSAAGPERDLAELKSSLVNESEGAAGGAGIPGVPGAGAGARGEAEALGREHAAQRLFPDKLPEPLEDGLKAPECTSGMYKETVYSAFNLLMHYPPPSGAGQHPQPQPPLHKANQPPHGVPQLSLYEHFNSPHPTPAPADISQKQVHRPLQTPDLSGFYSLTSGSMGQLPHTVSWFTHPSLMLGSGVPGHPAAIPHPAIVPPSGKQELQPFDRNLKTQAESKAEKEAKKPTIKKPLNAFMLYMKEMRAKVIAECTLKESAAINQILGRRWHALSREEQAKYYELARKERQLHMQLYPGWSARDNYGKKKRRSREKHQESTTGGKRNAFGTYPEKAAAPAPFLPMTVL
Sequence of Catenin beta-1/Transcription factor 7 (P35222 whole entry, the tested form may be a part): as the sequence (P35222 whole entry) above

In assay [17] the test system is SW480. Briefly: Anticancer activity against human SW480 cells assessed as reduction in cell proliferation incubated for 48 hrs by sulforhodamine B assay. To be noted: SW480, 48 h. The format is functional, cell-based.
Assay [18] has as its system HCT-116. Briefly: Anticancer activity against human HCT-116 cells assessed as reduction in cell proliferation incubated for 48 hrs by sulforhodamine B assay. The format is functional, cell-based. Conditions: HCT-116, 48 h.
The subject of assay [19] is HCT-116. Description: Antiproliferative activity against human HCT-116 cells assessed as reduction in cell viability incubated for 72 hrs by MTS assay. The format is functional, cell-based. Conditions: HCT-116, 72 h.
The test system of assay [20] is SW480. Briefly: Anticancer activity against human SW480 cells assessed as reduction in cell viability incubated for 72 hrs by MTT assay. The format is functional, cell-based. To be noted: SW480, 72 h.
A short description of assay [21]: Anticancer activity against human colorectal cancer cell lines assessed as reduction in cell viability incubated for 24 to 72 hrs by MTT assay. The class given is functional, cell-based.
Assay [22] concerns the target DNA polymerase beta (Homo sapiens, UniProt P06746). Description: Inhibition of human DNA polymerase beta by fluorescence anisotropy.
The subject of assay [23] is DLD-1. Briefly: Antiproliferative activity against human DLD-1 cells assessed as reduction in cell viability by WST assay. The format is functional, cell-based.
For assay [24], the system named is SW480. Description: Anticancer activity against human SW480 cells assessed as reduction in cell viability incubated for 12 to 24 hrs by MTS assay. The class given is functional, cell-based.
The subject of assay [25] is SW480. Description: Anticancer activity against human SW480 cells assessed as reduction in cell viability incubated for 72 hrs. The class given is functional, cell-based. Conditions: SW480, 72 h.
Assay [26] relates to HCT-116. Briefly: Anticancer activity against human HCT-116 cells assessed as reduction in cell viability incubated for 72 hrs. The class given is functional, cell-based. Conditions: HCT-116, 72 h.
Assay [27] deals with LoVo. Description: Antiproliferative activity against human LoVo cells assessed as reduction in cell viability. The class given is functional, cell-based.
Assay [28] concerns HCT-116. Briefly: Antiproliferative activity against human HCT-116 cells assessed as reduction in cell proliferation incubated for 72 hrs by CellTiter-Glo assay. The class given is functional, cell-based. Conditions: HCT-116, 72 h.
Assay [29] can be described thus: Inhibition of Wnt1 signalling in human HCT-116 cells expressing ST-Luc and renilla firefly luciferase incubated for 24 hrs by dual-luciferase reporter assay. The format is cell-based. To be noted: HCT-116, 24 h.
The nature of assay [30]: Inhibition of Wnt1 signalling in human SW480 cells expressing ST-Luc and renilla firefly luciferase incubated for 24 hrs by dual-luciferase reporter assay. The class given is cell-based. To be noted: SW480, 24 h.
Assay [31] deals with SW480. Description: Anticancer activity against human SW480 cells assessed as cell growth inhibition incubated for 24 hrs by MTS assay. The format is functional.

Converted amounts (≈) assume the structure as drawn. Non-standard residues stand in square brackets, D forms with d. Residues, ends and D or L forms follow the SMILES beside them. Hica(2S) = CC(C)C[C@H](O)C(=O)O; NMeV = CN[C@H](C(=O)O)C(C)C; NMeA = CN[C@@H](C)C(=O)O; βAla = NCCC(=O)O

By IC50 is commonly meant the point on the concentration scale where inhibition reaches its midpoint. `CCCCCCCCCCCCCC(C(=O)O)C(O)(CC(=O)OC)C(=O)O` (stereo unspecified): the IC50 in assay [1] and in [2] was 100 µM throughout.
Consider `CCn1c2ccccc2c2cc(C(=O)OC(C)C)nc(-c3cccc4ccccc34)c21`, for which, in assay [3], the IC50 stood at 2.8 µM.
In the case of `O=C(NCc1ccccc1)N1CCC(=O)N2C1CN(Cc1cccc3ccccc13)C[C@@H]2Cc1ccc(O)cc1` (stereo partly specified), the IC50 in assay [4] worked out at 8.07 µM.
For `O=c1[nH]c2ccccc2n1C1CCN(CCCC(c2ccc(F)cc2)c2ccc(F)cc2)CC1` [PIMOZIDE], the IC50 in assay [5] and in assay [6] was 10 µM throughout.
On to `CO[C@@H]1C[C@@H](C[C@H]2CC[C@H](C)[C@H]([C@@H](C)C(=O)O)O2)O[C@]2(O[C@](C)([C@H]3CC[C@@](C)([C@@H]4O[C@@H]([C@H]5O[C@@](O)(CO)[C@H](C)C[C@@H]5C)C[C@@H]4C)O3)C[C@H]2C)[C@@H]1C` [NIGERICIN], for which the IC50 in assay [7] was 1.39 µM; in assay [8], 8.48 µM.
For `Nc1ccc(O)c(C(=O)O)c1` [MESALAMINE], in assay [9], the IC50 is 20000 µM.
As to `C=C1C(=O)O[C@@H]2[C@H]3O[C@]3(C)CC/C=C(\C)CC[C@@H]12`, in assay [10], the half-inhibitory concentration (IC50) is 6.58 µM.
In [11], `C[C@H]1[C@H]2N(C(=O)CN(C)N2C(=O)NCc2ccccc2)[C@@H](Cc2ccc(OP(=O)(O)O)cc2)C(=O)N1Cc1cccc2cccnc12` came in with an IC50 of 0.15 µM.
Consider `CC(C)[C@]12O[C@H]1[C@@H]1O[C@]13[C@]1(O[C@H]1C[C@H]1C4=C(CC[C@@]13C)C(=O)OC4)[C@@H]2O` [TRIPTOLIDE], for which, in assay [12], the IC50 is 0.05 µM.
As for `C[C@@H]1O[C@@H](O[C@H]2[C@H](O[C@H]3[C@H](O[C@H]4CC[C@@]5(C)C6CC=C7[C@@H]8CC(C)(C)CC[C@]8(C(=O)O)CC[C@]7(C)C6(C)CC[C@H]5C4(C)C)OC[C@H](O)[C@@H]3O)O[C@H](CO)[C@@H](O)[C@@H]2O)[C@H](O)[C@H](O)[C@H]1O` (stereo partly specified), the IC50 in assay [13] was 1.01 µM; in assay [14], 1.81 µM.
For the compound `COc1cc(OC)c2c(c1)O[C@@]1(c3ccc(Br)cc3)[C@H](c3ccccc3)C[C@@H](O)[C@@]21O`, in [15], the IC50 turned out to be 0.01 µM.
In [16], `Cn1ncc2cc(CCc3nn[nH]n3)ccc21` returned an IC50 of 3.14 µM.
In the case of `CC[C@H](C)[C@@H]1NC(=O)[C@@H]2CCCN2C(=O)[C@H](CC(C)C)OC(=O)CCNC(=O)[C@H](C)N(C)C(=O)[C@H](C(C)C)N(C)C1=O` [destruxin B] (cyclo([Hica(2S)]PI[NMeV][NMeA][βAla])), the IC50 is 6.25 µM in assay [17] and 6.3 µM in assay [18].
Regarding `C=CCN1CC(=O)N2C(CN(Cc3cccc4cn(C)nc34)C[C@@H]2Cc2ccc(OP(=O)(O)O)cc2)N1C(=O)NCc1ccccc1` (stereo partly specified), in assay [19], the IC50 stood at 0.91 µM.
For `C[C@@H]1O[C@H]2O[C@H]3[C@@H](OC[C@H](O)[C@@H]3O)OC(=O)[C@@H]3CC(C)(C)C[C@H]4C5=CC[C@@H]6[C@@]7(C)C[C@H](O)[C@H](O[C@@H]8O[C@H](CO)[C@@H](O)[C@H](O)[C@H]8O[C@@H]8OC[C@H](OC(=O)C[C@](C)(O)CC(=O)O[C@@H]1[C@@H](O[C@@H]1OC[C@@H](O)[C@H](O)[C@H]1O)[C@H]2O)[C@H](O)[C@H]8O)[C@@](C)(CO)[C@@H]7CC[C@@]6(C)[C@]5(C)CCC34`, the IC50 in assay [20] was determined as 40 µM.
For `C[C@H]1[C@H](OC(=O)CCC(=O)O)O[C@@H]2O[C@@]3(C)CC[C@H]4[C@H](C)CC[C@@H]1[C@@]24OO3` [ARTESUNATE], the IC50 in [21] stood at 20.3 µM.
In [22], `Cc1ccc(Nc2nc(NS(=O)(=O)c3cc(C)c(C)cc3C)n[nH]2)cc1` had an IC50 of 5 µM.
For `O=C1[C@@H](Cc2ccccc2)N2C(=O)CCN(C(=O)NCc3ccccc3)[C@@H]2CN1Cc1cccc2ccccc12`, the IC50 in assay [23] is 21.5 µM.
As to `O=C(Nc1ccc([N+](=O)[O-])cc1Cl)c1cc(Cl)ccc1O` [NICLOSAMIDE], the IC50 in assay [24] worked out at 1 µM.
One may read the EC50 as the concentration at which the effect is half-maximal. In the case of `Cc1cc(/C=C/c2ccc3cc(N(C)C)ccc3[n+]2C)c(C)n1-c1ccccc1`, the EC50 is 0.056 µM in assay [25] and 0.043 µM in assay [26].
Turning to `COc1cc2c(cc1OC)[C@@]13CCN4CC5=CCO[C@H]6CC(=O)N2[C@H]1[C@H]6[C@H]5C[C@H]43` [BRUCINE], in [27], the IC50 worked out at 18.2 µM.
Turning to `CC(=O)c1cc2c(o1)C(=O)c1ccccc1C2=O` [NAPABUCASIN], in assay [28], the IC50 was 0.3 µM.
On to `CC[C@]12CCCN3CCc4c(n(c5ccccc45)[C@@H](c4ccc(O)c5c4N[C@H]4CC[C@]6(CC)CCCN7CC[C@]54[C@@H]76)C1)C32` (stereo partly specified), for which the IC50 worked out at 4.47 µM in [29] and 4.94 µM in [30].
What is called GI50 is the concentration that inhibits growth by half. Consider `CN1CC(=O)N2C(CN(Cc3cccc4ccccc34)C[C@@H]2Cc2ccc(O)cc2)N1C(=O)NCc1ccccc1` (stereo partly specified), for which, in [31], the GI50 came out at 0.98 µg/mL (≈ 1.78 µM).
